Reference: patent US9006191B2, “Silencing of polo-like kinase expression using interfering RNA” (Protiva Biotherapeutics, Inc., priority 2007, dated 2015)
Values joined by “and” are separate entries in the source; they are usually repeats but may differ in a detail not shown here. Identical values can stand only once. Strand notation (5' to 3'): a small letter for the sugar, then the base; units joined by * are phosphorothioate-linked, units joined directly phosphodiester-linked; [ ] holds rarer units or linkages, { } end groups; capitals alone tell only the bases. d = 2'-deoxy (DNA); r = 2'-OH (RNA)

Columns and labels:
[1] = tested on: hepatocellular carcinoma; settings: patients with advanced disease, phase III; cited from earlier work
[2] = tested on: Neuro2A cells; experiment: Neuro2A cell viability assay (CellTiter-Blue); assay type: cell-based; settings: mouse Neuro2A cells, SNALP-formulated siRNA, viability at 72 h relative to PBS
Procedure: Various PLK-1 siRNAs were formulated as SNALP (“2:40” SNALP formulation: 2% PEG-cDMA; 40% DLinDMA; 10% DSPC; and 48% cholesterol) and evaluated for their inhibitory effects on cell growth in vitro. HT29 (human colon adenocarcinoma) or Neuro2A (mouse neuroblastoma) cells were treated with various PLK-1 SNALP at a range of siRNA concentrations and their effect on cell viability was evaluated. Viability of cell cultures is expressed as % viability relative to PBS treated controls.
Additional PLK-1 siRNA molecules were formulated as SNALP (“2:40” SNALP formulation: 2% PEG-cDMA; 40% DLinDMA; 10% DSPC; and 48% cholesterol) and evaluated for their inhibitory effects on cell growth in vitro. HT29 or Neuro2A cells were plated in triplicate at 5000 cells/well and 2500 cells/well, respectively. PLK-1 SNALP dosages were as follows: 25 nM; 5 nM; and 1 nM. Cell viability analysis was performed at 72 hours following transfection. SNALP containing a non-targeting (GFP) siRNA were used as a negative control.
Additional PLK-1 siRNA molecules were formulated as SNALP (“2:40” SNALP formulation: 2% PEG-cDMA; 40% DLinDMA; 10% DSPC; and 48% cholesterol) and evaluated for their inhibitory effects on cell growth in vitro. HT29 or Neuro2A cells were plated in triplicate at 5000 cells/well and 2500 cells/well, respectively. PLK-1 SNALP dosages were as follows: 30 nM; 10 nM; and 3.3 nM. Cell viability analysis was performed at 72 hours following transfection. SNALP containing a non-targeting (GFP) siRNA were used as a negative control.

[3] = SNALP particle size and polydispersity; assay type: physicochemical
[4] = tested on: KSP mRNA; experiment: KSP mRNA silencing in Neuro2a cells (bDNA assay); assay type: cell-based, mouse; settings: 24 h after transfection
Description: Activity of the 2′OMe-modified panels of (A) PLK1424 and (B) PLK773 siRNA. Unmodified PLK1424 or PLK773 siRNA (black) were compared in the Hep3B cell viability assay to the 2′OMe modified duplexes 1/A, 2/A, 1/B, 2/B, 1/C, or 2/C that comprise the respective 2′OMe sense/antisense oligonucleotides (see, Table 6). Data are mean viability of triplicate cultures relative to PBS treated cells and representative of 2 independent experiments using SNALP-formulated siRNA. (C) Cytokine induction by unmodified and 2′OMe PLK-1 siRNA in vitro. Murine Flt3L DC were treated with 5 μg/mL unmodified PLK773 or PLK1424 siRNA duplexes (773, 1424) and their constituent sense (S) or antisense (AS) oligonucleotides or the 2′OMe siRNA duplexes PLK773-1/B and PLK1424-2/A formulated in SNALP. IFNα and IL-6 were assayed in culture supernates at 24 h. Values are mean+SD of 3 separate experiments conducted in triplicate cultures. (D,E) Activity of SNALP-formulated KSP2263 siRNA in murine Neuro2a cells. (D) Correlation between KSP mRNA silencing and cell viability relative to PBS control. KSP mRNA was determined by bDNA analysis at 24 h. Duplicate plates were assessed for cell viability at 72 h. (E) Activity screen comparing the unmodified KSP2263 siRNA to the panel of 2′OMe-modified duplexes (see, Table 6) in the Neuro2a cell viability assay. Data represents mean+/−SD triplicate cultures, relative to PBS treatment. […]

[5] = tested on: HeLa cells; experiment: Monoastral spindle formation in HeLa cells; assay type: cell-based, human; settings: 20 nM, 16 h
Procedure: HeLa cells were treated for 16 h with (A) Luc or (B) KSP2263 siRNA at 20 nM then immunostained for α-tubulin (FITC). DNA was stained with DAPI and flourescent images captured and overlayed.

[6] = tested on: Hep3B liver tumors; experiment: Intrahepatic Hep3B tumor model (survival, body weight, tumor burden); assay type: in vivo; settings: Hep3B-nu/nu mouse model, 2 mg/kg twice weekly d11-d28
Procedure: SNALP containing PLK-1 siRNA (“1:57” SNALP formulation: 1.4% PEG-cDMA; 57.1% DLinDMA; 7.1% DPPC; and 34.3% cholesterol) were tested for their effects on the survival of […] mice bearing Hep3B liver tumors.
Intrahepatic tumor models. Liver tumors were established in mice by direct intrahepatic injection of Hep3B or Neuro2a tumor cells (45). Female scid/beige mice (Charles River Laboratories) and male A/J mice (Jackson Laboratories) were used as hosts for the Hep3B and Neuro2a tumors, respectively. Animals received Anafen by SC injection immediately prior to surgery. Individual mice were anaesthetized by isoflourane gas inhalation and eye lube applied to prevent excessive eye drying. While maintained under gas anaesthesia, a single 1.5 cm incision across the midline was made below the sternum and the left lateral hepatic lobe exteriorized. 1×10^6 Hep3B cells or 1×10^5 Neuro2a cells suspended in 25 μL PBS were injected slowly into the lobe at a shallow angle using a Hamilton syringe and 30G needle. A swab was then applied to the puncture wound to stop any bleeding prior to suturing. Mice were allowed to recover from anaesthesia in a sterile cage and monitored closely for 2-4 h before being returned to conventional housing.
Eight to 11 days after tumor implantation, mice were randomized into treatment groups. siRNA SNALP formulations or PBS vehicle control were administered by standard intravenous injection via the lateral tail vein, calculated on a mg siRNA/kg basis according to individual animal weights (10 mL/kg injection volume). Body weights were then monitored throughout the duration of the study as an indicator of developing tumor burden and treatment tolerability. For efficacy studies, defined humane endpoints were determined as a surrogate for survival. Assessments were made by qualified veterinary technicians based on a combination of clinical signs, weight loss, and abdominal distension to define the day of euthanization due to tumor burden.
Measurement of human PLK-1 and GAPDH mRNA in tumor tissues. Tumors were harvested directly into RNALater and stored at 4° C. until processing. 100 mg tumor tissue was homogenized in Tissue and Lysis Solution (EpiCentre Biotechnologies) containing […] proteinase K (EpiCentre) in a Fastprep tissue homogenizer followed by incubation in a 65° C. waterbath for 15 min and centrifuged to clarify lysates. mRNA analysis in FIG. 33B was performed on purified RNA isolated according the 5′-RACE-PCR protocol. Human PLK-1 and GAPDH mRNA were measured in tumor lystes by the QuantiGene bDNA assay (Panomics) as per the manufacturer's instructions (Quantigene 1.0 Manual). […] Data were expressed as mean PLK-1:GAPDH ratio+/−SD of individual animals. Tumor burden was assessed by homogenizing the complete liver from tumor bearing mice and measuring the total hGAPDH signal (RLU's) within the liver. Values were expressed as hGAPDH RLU/mg total liver.

[7] = tested on: IFIT1 mRNA, serum IFNα; settings: mouse, in vivo, iv
Procedure: (§1) Balb/c mice (n=4 per group) were administered 2.5 mg/kg siRNA or lipid vehicle; serum IFNα (pg/mL) and IFIT1 mRNA (relative to GAPDH) from whole liver lysates were assessed after 4, 8, and 16 h by ELISA and bDNA assay, respectively. […] (b) Serum IFNα and (c) liver IFIT1 mRNA were assessed 4 h after administration (mean+SD, n=4).
(§2) SNALP-formulated Luc (unmodified) and the 2′OMe-modified Luc-U/U, PLK1424-2/A, PLK773-1/B, or KSP2263-U/U siRNA were administered at 2 mg/kg i.v. to Balb/C mice. (A) IFIT1 relative to GAPDH mRNA in liver and spleen was assessed at 4 h by bDNA analysis. […] Serum IFNα was assessed at 6 h by ELISA. […] Values represent mean+SD (n=4).
(§3) IFIT1 mRNA and serum cytokines were assessed 4-6 h after SNALP administration based on the approximate time of peak response for these markers. In these studies, SNALP-formulated native Luc siRNA (Table 6) was used as a positive control for immune stimulation.
(§4) In vivo immune stimulation assays. […] 6-8 week old Balb/C mice were obtained from Harlan and subject to a two week acclimation period prior to use. Mice were administered SNALP formulated siRNA (2 mg/kg) in PBS via standard intravenous injection in the lateral tail vein. Blood was collected by cardiac puncture and processed as plasma for cytokine analysis. Liver and spleen were collected into RNALater (Sigma Co.) for IFIT1 mRNA analysis.
(§5) Measurement of IFIT1 mRNA in mouse tissues. Murine liver and spleen were processed for bDNA assay to quantitate IFIT1 mRNA as described above. The IFIT1 probe set was specific to mouse IFIT1 mRNA (positions 4-499 of NM—008331) and the GAPDH probe set was specific to mouse GAPDH mRNA (positions 9-319 of NM—008084). Data is shown as the ratio of IFIT1 relative light units (RLU) to GAPDH RLU.
(§6) Cytokine ELISA. All cytokines were quantified using sandwich ELISA kits. These were mouse interferon-α (PBL Biomedical; Piscataway, N.J.) and human and mouse IL-6 (BD Biosciences; San Diego, Calif.).

[8] = tested on: IFIT1 mRNA, serum IFNα; experiment: In vivo immune stimulation assay in Balb/c mice (IFIT1 mRNA, serum IFNα); settings: 2 mg/kg IV, 4 h
Procedure: as §1, §2, §3, §4, §5, §6

[9] = tested on: IFN-α, IFIT1 mRNA; experiment: In vivo immune stimulation assay in CD1 ICR mice (plasma IFN-α, IFIT1 mRNA); set-up: species or system mouse; settings: 1:57 PEG-cDMA SNALP, 3 mg/kg IV, 4 h
Procedure: In vivo immune stimulation assays. Animal studies were performed to test for the immunostimulatory activity of SNALP containing 2′OMe-modified PLK1424 siRNAs. Six-week-old female CD1 ICR mice were used in this study. […] The tolerability of the treatment regime was monitored by animal appearance and behavior.

[10] = tested on: anti-PEG-lipid IgG and IgM antibodies; experiment: In vivo PEG-lipid antibody induction assay; set-up: species or system mouse; settings: CD1 ICR mice, 1:57 SNALP IV at Days 0, 7, 14; plasma Days 7, 14, 21
Procedure: In vivo PEG-lipid antibody induction assays. Animal studies were performed to test for the induction of an antibody response to 2′OMe-modified PLK1424 siRNAs that were encapsulated in a 1:57 SNALP formulation containing the lipid conjugate PEG-cDMA. Six-week-old female CD1 ICR mice were used in this study. […] Mice were then sacrificed on Day 21. The tolerability of the treatment regime was monitored by animal appearance, behavior, and body weight. Anti-PEG-lipid IgG and IgM antibodies in plasma at Days 7, 14, and 21 were measured by ELISA.

## CNC(=O)c1cc(Oc2ccc(NC(=O)Nc3ccc(Cl)c(C(F)(F)F)c3)cc2)ccn1 [Sorafenib]
[1]
  survival time: 10.7 mo

## KSP2263: published siRNA targeting KSP, SEQ ID NO:225/226 (chain 1 rCrUrGrArArGrArCrCrUrGrArArGrArCrArArUdTdT; chain 2 rArUrUrGrUrCrUrUrCrArGrGrUrCrUrUrCrArGdTdT)
[2]
  cell viability / inhibition of cell growth: loss of cell viability at 72 h
[3]
  mean SNALP particle size: 88 nm
  polydispersity: 0.07
[4]
  KSP mRNA: dose-dependent reductions in KSP mRNA
[5]
  monoastral spindle phenotype: monoastral spindles

## Luc: unmodified siRNA targeting luciferase, SEQ ID NO:231/232 (chain 1 GAUUAUGUCCGGUUAUGUAUU; chain 2 UACAUAACCGGACAUAAUCUU; unmodified RNA)
[6]
  median survival, Study (A): 67 days
  median survival, study (B): undefined
[3]
  mean SNALP particle size: 90 nm and 82 nm and 72 nm
[7]
  serum IFNα / serum cytokine response: detection of systemic IFNα
[8]
  increase in IFIT1 mRNA in the liver compared to PBS: 83 fold
  increase in IFIT1 mRNA in the spleen compared to PBS: 247 fold

## PLK1424 2/3: 2′OMe-modified PLK1424 siRNA, SEQ ID NO:400/215 (chain 1 AGANCACCCNCCUNAAANANU; chain 2 UAUUUAANGAGGGUGANCUUU; 2'-OMe modifications, chemistry not fully specified)
[9]
  IFIT1 induction (QG analysis): no significant IFIT1 induction above that of empty SNALP
[10]
  IgG / IgM antibody response against PEG-lipid (PEG-cDMA): almost no detectable antibody responses against the PEG-lipid

## PLK1424 2/4: 2′OMe-modified PLK1424 siRNA, SEQ ID NO:400/401 (chain 1 AGANCACCCNCCUNAAANANU; chain 2 UAUUUAANGAGGGUGANCUUC; 2'-OMe modifications, chemistry not fully specified)
[9]
  IFIT1 induction (QG analysis): no significant IFIT1 induction above that of empty SNALP
[10]
  IgG / IgM antibody response against PEG-lipid (PEG-cDMA): almost no detectable antibody responses against the PEG-lipid

## PLK1424 2/6: 2′OMe-modified PLK1424 siRNA, SEQ ID NO:400/403 (chain 1 AGANCACCCNCCUNAAANANU; chain 2 UAUUUAANGAGGGUNANCUNC; 2'-OMe modifications, chemistry not fully specified)
[9]
  IFIT1 induction (QG analysis): no significant IFIT1 induction above that of empty SNALP
[10]
  IgG / IgM antibody response against PEG-lipid (PEG-cDMA): almost no detectable antibody responses against the PEG-lipid
